Measured values from patent US8466311B2, “Neuroprotective compositions and methods” (Sanford-Burnham Medical Research Institute, priority 2006, dated 2013).
Entries after “also recorded” stand apart in the source; their conditions may differ.

Columns and labels:
GSH [1] = assay: Total GSH levels in cortical cultures; assay type: cell-based; conditions: cortical cultures, control 46.8±4.5 nmol/mg protein
Description: (§1) Cell cultures, transfection, and glutathione (GSH) measurement. […] Transfection was performed with Lipofectamine 2000 (Invitrogen). In the reporter gene assays, firefly luciferase activity in cell lysates was measured with a luminometer (Promega). Total GSH (reduced and oxidized) was determined as described (Lee et al., Biochem. Biophys. Res. Commun. 280:286-292, 2001).
One caveat to the mechanism of NEPP and other electrophilic compounds acting at the level of Keap1 to induce HO-1 transcription is that NEPP could potentially react indiscriminately with other thiol-containing compounds in cells. To approach this question, we assessed cellular glutathione (GSH) levels to determine whether NEPP11 would affect this abundant antioxidant thiol. Nepp11 or N-ethylmaleimide (NEM) was added at t=0 and levels of total GSH were measured at the indicated times. GSH content of control cortical cultures (set arbitrarily at 100%) was 46.8±4.5 nmol/mg protein. […] In fact, this scenario seems likely, because the Keap1/Nrf2 pathway regulates the expression of γ-GCL in addition to HO-1 (Itoh et al., Mol. Cell. Biol. 24:36-45, 2004). […]
Transfections were performed with Lipofectamine 2000 (Invitrogen), and firefly luciferase activity in cell lysates was measured with a luminometer in the reporter gene assays (Promega).

caspase-3 = assay: NMDA-induced caspase-3 activation; assay type: cell-based, rat; conditions: NEPP11 1 μM
Text: Indeed, we found this to be the case.

ARE core element = ARE core element luciferase reporter (pAREluc) in HT22 cells; assay type: cell-based
Description: as §1
The E1 and E2 enhancer sites in the H0-1 promoter each contain an ARE. […] Biol. 24:36-45, 2004; Gong et al., Antioxid. Redox Signal. 4:249-257, 2002). Because NEPP compounds have an electrophilic carbon at position #11 and can bind cysteine residues of cellular proteins, we studied this pathway of ARE activation. To provide direct evidence that NEPP11 could activate the H0-1 enhancer through an ARE, we studied transcriptional activation of a wild-type ARE core element (pAREluc) and a mutated form (pGC-AREIuc) (Lee et al., Biochem, Biophys. Res. Commun. 280:286-292, 2001). cDNA constructs represented wild-type
(Kraft et al., J. Neurosci. 24:1101-1112, 2004).

AP-1 binding site = assay: Enhancer element luciferase reporter p3xAP1luc; assay type: cell-based; conditions: NEPP11 2 μM
Description: Because the E1 and E2 regions also contain other enhancer elements, we tested the effects of NEPP11 (2 μM) on the expression of luciferase activity derived from these elements, including the cAMP-responsive element (CRE; p3xCREluc), AP-1 binding site (p3xAP1luc), NF-κB binding site (p3xNF-κBluc), NFAT-binding site (p3xNFATluc), ETS-binding site (p3xETSluc), and MEF2-binding site (p3xMEF2luc).

ARE = assay: ARE(GSTYa)-luciferase reporter in PC12h cells; assay type: cell-based
Description: (1) pGL3-GSTYa ARE core-luciferase vector. […] The dsDNA thus obtained was inserted into the Mlu l and Bglll sites of the pGL3-promoter vector (Promega Co., Madison, Wis.).
Transient transfection and measurement of luciferase activity. PC12h cells or cerebrocortical cultures (E17, DIV21) were incubated for 5 h in EBSS containing 1 μg of a plasmid DNA plus Lipofectamine 2000 (Invitrogen, Carlsbad, Calif.). Transfection efficiency was normalized to β-galactosidase activity expressed by co-transfection with pSV-β-gal (Promega). For reporter gene assays, cells were transfected with 1 μg of the reporter construct [ARE(GSTYa)-luciferase] and 0.2 μg pSV-β-gal for 1 hour. […] Firefly luciferase activity and β-galactosidase activity in cell lysates were measured using a Luciferase System and β-Galactosidase Enzyme Assay System, respectively (Promega, Madison, Wis.).
Next, we examined the involvement of the Keap1/Nrf2 pathway more precisely by studying activation of the ARE. This transcription element responds to the Keap1/Nrf2 pathway; we monitored activation of the ARE by performing luciferase reporter gene assays using PC12h cells transfected with ARE(GSTYa)-luciferase (Alam et al., J. Biol. Chem. 274:26071-26077, 1999) in the presence or absence of an Nrf2 dominant-negative (DN) or Keap1 expression vector.

GSH [2] = assay: Brain GSH and GSSG after feeding CA; assay type: in vivo, mouse; conditions: food containing 0.03% CA for a week
Description: Mice were fed 0.03% CA for 1 week, and their brains were then removed, lysed and subjected to GSH and GSSG measurement.
Measurement of brain GSH. After exsanguination via heart puncture under ether anesthesia, mouse brains were removed and quickly frozen in liquid nitrogen. We ruled out GSH as a contaminant from blood vessels by HPLC analysis of blood components in the brain lysates.
The frozen brains were lysed with 1% sulfosalicylic acid on ice for 10 min, and total glutathione (reduced and oxidized) was determined as described previously (Sagara et al., 2002). Briefly, after the lysates had been incubated on ice for 10 min, the supernatants were collected after centrifugation in Eppendorf microfuge tubes. Upon neutralization of each supernatant with triethanolamine, the total glutathione (reduced and oxidized) concentration was determined. Pure GSH was used to obtain the standard curve. For the determination of oxidized GSH, the method of Griffith using 2-vinylpyridine was used to deplete the reduced GSH.
Mice were allowed free access to food containing 0.03% CA for a week. Their brains were then removed, and extracts were prepared and measured for GSH and GSSG levels. Under these conditions, CA increased both total GSH+GSSG and the ratio of GSH/GSSG (FIG. 6). […]

Compound	total GSH levels (GSH [1])	NMDA-induced caspase-3 activation (caspase-3)	mutant ARE (pGC-AREluc) transcriptional activity (ARE core element)	wild-type ARE (pAREluc) transcriptional activity (ARE core element; dose-dependent)	activity of p3xAP1luc (AP-1 binding site)	ARE activation with co-transfection of Nrf2-DN or Keap1 (ARE; PC12h cells, CA)	stimulation of ARE-based transcription (ARE; PC12h cells, CA 10 μM) [fold]	ARE activation relative to sulforaphane (ARE; equimolar basis, 20 h)	ratio of GSH/GSSG in brain (GSH [2])	total GSH+GSSG in brain (GSH [2])
COC(=O)CCCCC/C=C1/C(=O)C=C[C@H]1CCCCCCc1ccc(C)cc1 [NEPP11]	did not deplete GSH levels; also recorded: transiently increased	inhibited	unaffected	up to seven-fold	slightly depressed					
CC(C)c1cc2c(c(O)c1O)[C@@]1(C(=O)O)CCCC(C)(C)[C@@H]1CC2 [CA, carnosic acid]						significantly repressed	> 10	to a much greater extent than sulforaphane	increased	increased
